The nature of test [1]: Non-competitive inhibition of bacterial C-terminal His6-tagged ErmC' (unknown origin) expressed in Escherichia coli BL21(DE3) in presence of [methyl-3H]SAM.
Test [2] in a line: Inhibition of bacterial C-terminal His6-tagged ErmC' expressed in Escherichia coli BL21(DE3) assessed as decrease of protein binding to [gamma-33P]ATP-labeled 32-nt oligonucleotide after 30 mins by filter binding assay.
The nature of test [3]: Inhibition of bacterial C-terminal His6-tagged ErmC' (unknown origin) expressed in Escherichia coli BL21(DE3) assessed as decrease in rRNA methylation using [methyl-3H]AdoMet measured after 1 hr.
A short description of test [4]: Inhibition of bacterial C-terminal His6-tagged ErmC' expressed in Escherichia coli ER2566 assessed as decrease in rRNA methylation using [methyl-3H]AdoMet measured after 1 hr.
The nature of test [5]: Non-competitive inhibition of bacterial C-terminal His6-tagged ErmC' (unknown origin) expressed in Escherichia coli BL21(DE3) in presence of [methyl-3H]SAM. The source holds these as a separate data set.
Test [6] is described as follows: Competitive inhibition of bacterial C-terminal His6-tagged ErmC' expressed in Escherichia coli BL21(DE3) in presence of [methyl-3H]SAM.
A short description of test [7]: Inhibition of bacterial ErmC' assessed as decrease in rRNA methylation preincubated for 15 mins followed by S-adenosyl-L-[methyl3H]methionine addition measured after 2 hrs by scintillation counting method.

SMILES strings stand for the structures.

A word on the IC50: it is the concentration at which inhibition is half-maximal. By Kd is commonly meant the concentration at which binding is half-saturated. Usually Ki stands for a dissociation constant, usually derived from enzyme kinetics or from competition with a known ligand.

With `O=C(Nc1cccc(NC(=O)c2cccc(F)c2)c1)c1ccncc1`, the IC50 in test [1] is 250 µM.
In the case of `O=C(Nc1ccncc1)c1ccn(COc2ccc(F)c(Cl)c2)n1`, the IC50 in test [1] is > 500 µM.
Same read-out and setting: in the case of `O=C(c1cnn[nH]1)N1CCN(c2ccc(C(F)(F)F)cn2)CC1` it was > 500 µM; in that of `O=C(Nc1cccc(NCc2ccncc2)c1)c1ccccc1Cl`, > 500 µM; in that of `O=C(c1cc(C2CC2)n[nH]1)N1CCN(c2ccc(C(F)(F)F)cn2)CC1`, > 500 µM.
For the compound `Cc1cccc(Nc2nc(C(=O)N3CCN(c4ccc(C(F)(F)F)cn4)CC3)cs2)n1`, the Kd in test [2] worked out at 1.04 µM. Moreover, the IC50 in test [3] turned out to be 116 µM.
Turning to `O=C(c1n[nH]c(=O)[nH]1)N1CCN(c2ccc(C(F)(F)F)cn2)CC1`, the IC50 in test [1] is > 500 µM.
In the case of `Cn1cnnc1-c1cccc(NC(=O)Cc2cccc(F)c2)c1`, the IC50 in test [3] was 500 µM.
For the compound `O=C(NC1CCN(c2nc3ccccc3s2)CC1)c1ccncc1`, the IC50 in test [3] was > 500 µM.
With `Cc1ccc(Sc2cc(C)c(C#N)c(Sc3ccc(C)cc3)n2)cc1`, the IC50 in test [4] was found to be 180 µM.
`FC(F)(F)c1ccc(N2CCN(Cc3c[nH]c(-c4ccccc4)n3)CC2)nc1`: the IC50 in test [3] is > 500 µM.
As to `O=C(c1c[nH]c(=O)[nH]1)N1CCN(c2ccc(C(F)(F)F)cn2)CC1`, the IC50 in test [3] was found to be 100 µM. Moreover, in test [5], the Ki is 148 µM.
For the compound `CCCc1cc(C(=O)Nc2cccc(OCc3ccncc3)c2)[nH]n1`, the IC50 in test [3] amounted to 250 µM.
Still for that read-out and setting: in the case of `O=C(NCc1cccc(Cn2ccnc2)c1)c1cc2ccccc2o1` it was 500 µM.
On to `CC(=O)c1c[nH]c(C(=O)N2CCN(c3ccc(C(F)(F)F)cn3)CC2)c1`, for which the IC50 in test [1] was > 500 µM.
`O=C(c1csc(Nc2ncccn2)n1)N1CCN(c2ccc(C(F)(F)F)cn2)CC1`: the Kd in test [2] is 0.04 µM. For the same compound, the inhibitory constant (Ki) in test [6] is 111 µM. Also, the IC50 in test [3] was 110 µM.
Turning to `CC(=O)Nc1ccc(S(=O)(=O)NCCc2ccncc2)cc1`, in test [3], the half-maximal inhibitory concentration (IC50) amounted to 500 µM.
In the case of `Nn1c(SCc2nc3ccccc3[nH]2)nnc1-c1ccncc1`, in test [1], the IC50 is 500 µM.
For `O=C(Cc1cn2ccsc2n1)Nc1cccc(N2CCCC2=O)c1`, the IC50 in test [1] is > 500 µM.
Turning to `O=C(Nc1ccn(CCc2ccncc2)n1)Nc1ccc(F)cc1F`, the IC50 in test [1] came out at 500 µM.
Same read-out and setting: in the case of `O=C(c1cn(-c2ccccc2)nn1)N1CCN(c2ccc(C(F)(F)F)cn2)CC1` it was 500 µM.
Turning to `O=C(CSc1nc2cccnc2[nH]1)Nc1nccs1`, the IC50 in test [3] was > 500 µM.
On to `O=C(CSc1nnc2c(n1)[nH]c1ccccc12)Nc1ccccn1`, for which, in test [1], the IC50 is > 250 µM.
With `O=C(c1cc(Cl)c[nH]1)N1CCN(c2ncc(C(F)(F)F)cc2Cl)CC1`, the IC50 in test [3] is > 500 µM.
In the case of `O=C(Cc1cccc(F)c1)Nc1cccc(-c2ccn[nH]2)c1`, the IC50 in test [1] was 500 µM.
Take `O=C(NCCSc1ccccc1)c1ccc(-n2cncn2)cc1`: the IC50 in test [3] is 250 µM.
Take `COC(=O)c1sc2ccccc2c1OS(=O)(=O)c1ccc(Cl)cc1`: in test [4], the IC50 turned out to be 250 µM.
As for `CC(=O)Nc1nc(C)c(-c2csc(Nc3cccc(O)c3)n2)s1`, the Ki in test [6] worked out at 354 µM. The IC50 in test [3] came to 299 µM.
On to `Clc1ccccc1Cn1nnc2c(N/N=C/c3cccnc3)ncnc21`, for which the IC50 in test [4] turned out to be 250 µM.
Consider `Cc1occc1C(=O)Nc1nc(CC(=O)Nc2ccccc2)cs1`, for which the IC50 in test [1] amounted to 250 µM.
On to `COc1ccc(C(=O)CSc2nc(O)cc(=O)[nH]2)cc1`, for which the IC50 in test [1] was > 500 µM.
`FC(F)(F)c1ccc(N2CCN(Cc3cn4ccccc4n3)CC2)nc1`: the IC50 in test [3] was > 500 µM.
Regarding `O=C1c2ccccc2C(=O)N1CN(CCCn1ccnc1)CN1C(=O)c2ccccc2C1=O`, the IC50 in test [4] came to 300 µM.
`Nc1nc(N)nc(CSc2nnc(NCc3ccccc3)s2)n1`: the IC50 in test [3] is > 500 µM.
Still for that read-out and setting: with `O=C(Nc1nccs1)c1cc(-c2ccccn2)nc2ccccc12` the figure was > 250 µM.
For `O=C(NCCOc1ccc2c(c1)OCO2)c1ccc2ccccc2n1`, in test [3], the IC50 was 500 µM.
Turning to `Cc1nccc(C(=O)Nc2cc(NC(=O)c3ccccc3)ccc2C)n1`, the concentration for half-maximal inhibition (IC50) in test [7] worked out at 18 µM.
As to `CN(C)c1ccc(CNC(=O)c2ccc(-n3cncn3)cc2)cc1`, the IC50 in test [1] was > 500 µM.

The values above are taken from BindingDB's records for doi:10.1016/j.ejmech.2017.11.032 (International Institute of Molecular and Cell Biology, 2018).
